Laboratory results as given in patent US7906512B2, “3,6-substituted imidazol[1,2-b]pyridazine analogs for treating allergic and inflammatory diseases” (Alcon, Inc., priority 2005, dated 2011).

Target: Syk (h) (Homo sapiens, UniProt P43405)
Test: Syk kinase inhibition assay (33P-ATP filter binding)
Assay type: biochemical
Details: not given
Protocol: In a final reaction volume of 25 μl, Syk (h) (5-10 mU) is incubated with 50 mM Tris pH 7.5, […], 0.1 mM Na3VO4, 0.1% β-mercaptoethanol, 0.1 mg/mL poly (Glu, Tyr) 4:1, 10 μM test agent, 10 mM MgAcetate and [γ-^33P-ATP] (specific activity approximately 500 cpm/pmol, concentration as required). The reaction is initiated by the addition of the MgATP mix. After incubation for 40 minutes at room temperature, the reaction is stopped by the addition of 5 μl of a 3% phosphoric acid solution. 10 μl of the reaction is then spotted onto a Filtermat A and washed three times for 5 minutes in 75 mM phosphoric acid and once in methanol prior to drying and scintillation counting. Percent inhibition was calculated using the following formula: % Control=((sample-mean no enzyme)/(mean plus enzyme−mean no enzyme))×100.

With `CCCC/C=C/c1cnc2ccc(NCCN(C)C)nn12` as the compound, how does the inhibition at 10 µM read?
Its inhibition at 10 µM is 27%.

Same assay, conditions: 10 μM test agent; 40 minutes at room temperature; substrate poly (Glu, Tyr) 4:1; read-out: % inhibition

How did the inhibition at 10 µM turn out when `c1n[nH]cc1-c1cnc2ccc(NC3CCOCC3)nn12` was run?
Its inhibition at 10 µM is 42%.

For `CN1CCN(c2ccc(CNc3ccc4ncc(-c5cccc(OC(F)(F)F)c5)n4n3)cc2)CC1`, which inhibition at 10 µM is on record?
Its inhibition at 10 µM is 33%.

How did the inhibition at 10 µM turn out when `CCCNc1ccc2ncc(-c3ccsc3)n2n1` was run?
The inhibition at 10 µM was 23%.

`CCCNc1ccc2ncc(-c3cc(C)cs3)n2n1` was tested. Which inhibition at 10 µM did it give?
The inhibition at 10 µM was 38%.

How did the inhibition at 10 µM turn out when `c1csc(-c2cnc3ccc(NCC4CC4)nn23)c1` was run?
The inhibition at 10 µM was 26%.

`COc1cc(CNc2ccc3ncc(-c4ccc(Oc5ccccc5)cc4)n3n2)cc(OC)c1OC` was tested. Which inhibition at 10 µM did it give?
The inhibition at 10 µM was 24%.

How did the inhibition at 10 µM turn out when `COc1ccc(-c2cnc3ccc(NCc4ccccn4)nn23)cc1` was run?
Its inhibition at 10 µM is 77%.

`COc1ccccc1-c1cnc2ccc(NCc3ccccn3)nn12` was tested. Which inhibition at 10 µM did it give?
The inhibition at 10 µM was 81%.
